Source: the supplement of paper PMC11061612

Tests used:
[1] = test system: ASH-3 (Thyroid Gland Carcinoma); experiment: Bliss excess, mean over the matrix (fraction); higher = more synergy
Procedure, shortened: (§1)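 Cell lines in DMEM/F12 or RPMI with 10% FBS were plated in 1536-well plates, held 24 hours at 37°C, 5% CO2, then given two-drug dose matrices for 72 hours (DMSO typically 0.2%). Viability was read by CellTiter-Glo 2.0 luminescence and scaled as inhibition from 0 (vehicle wells) to 1 (blank wells). Combination Emax is the second-highest inhibition in the matrix; Bliss excess is observed combination effect minus expected EA + EB − EA·EB, EA and EB being single-agent effects.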

[2] = test system: BV-173 (Chronic Myelogenous Leukemia); experiment: as above
Procedure, shortened: as §1

EW-18 (Ewing's Sarcoma) = experiment: as above
Procedure, shortened: as §1

[3] = test system: H-EMC-SS (Chondrosarcoma); experiment: as above
Procedure, shortened: as §1

[4] = test system: JHH-7 (Hepatocellular Carcinoma); experiment: as above
Procedure, shortened: as §1

[5] = test system: MFE-319 (Endometrial Carcinoma); experiment: as above
Procedure, shortened: as §1

NB7 (Neuroblastoma) = experiment: as above
Procedure, shortened: as §1

[6] = test system: NCI-H322M (Lung Adenocarcinoma); experiment: as above
Procedure, shortened: as §1

[7] = test system: OCUB-M (Breast Carcinoma); experiment: as above
Procedure, shortened: as §1

[8] = test system: PFSK-1 (Other Solid Carcinomas); experiment: as above
Procedure, shortened: as §1

[9] = test system: SCC-9 (Oral Cavity Carcinoma); experiment: as above
Procedure, shortened: as §1

[10] = test system: TGBC11TKB (Gastric Carcinoma); experiment: as above
Procedure, shortened: as §1

[11] = test system: VMRC-LCD (Lung Adenocarcinoma); experiment: as above
Procedure, shortened: as §1

[12] = test system: ASH-3 (Thyroid Gland Carcinoma); experiment: combination Emax (second highest fraction inhibited in the dose matrix, 72 h); higher = more inhibition; extreme values may be limits of the assay
Procedure, shortened: as §1

[13] = test system: KYSE-150 (Esophageal Squamous Cell Carcinoma); experiment: as above
Procedure, shortened: as §1

[14] = test system: LC4-1 (B-Lymphoblastic Leukemia); experiment: as above
Procedure, shortened: as §1

[15] = test system: NCI-H513 (Other Solid Carcinomas); experiment: as above
Procedure, shortened: as §1

[16] = test system: NCI-N87 (Gastric Carcinoma); experiment: as above
Procedure, shortened: as §1

[17] = test system: OCUM-1 (Gastric Carcinoma); experiment: as above
Procedure, shortened: as §1

[18] = test system: PFSK-1 (Other Solid Carcinomas); experiment: as above
Procedure, shortened: as §1
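For Bliss excess, mean over the matrix in this document: after 72 h of two-drug dosing.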

SMILES	Bliss excess [1]	Bliss excess [2]	Bliss excess (EW-18 (Ewing's Sarcoma))	Bliss excess [3]	Bliss excess [4]	Bliss excess [5]	Bliss excess (NB7 (Neuroblastoma))	Bliss excess [6]	Bliss excess [7]	Bliss excess [8]	Bliss excess [9]	Bliss excess [10]	Bliss excess [11]	combination Emax [12]	combination Emax [13]	combination Emax [14]	combination Emax [15]	combination Emax [16]	combination Emax [17]	combination Emax [18]
CC1(C)CCC(CN2CCN(c3ccc(C(=O)NS(=O)(=O)c4ccc(NCC5CCOCC5)c([N+](=O)[O-])c4)c(Oc4cnc5[nH]ccc5c4)c3)CC2)=C(c2ccc(Cl)cc2)C1 [Venetoclax] + Cc1cc2ncnn2cc1Nc1ncc2c(n1)n(C1CCOCC1)c(=O)n2C [AZD7648] (first compound max 1 µM, 7x7, partner max 10 µM)	-0.0732	-0.0492	0.0188	-0.0179	-0.0446	-0.0442	-0.018	-0.0397	-0.0149	0.0904	-0.0211	-0.0592	-0.0675	0.263	0.572	1	0.297	0.354	0.216	0.489
COc1nnc2ccc(N3CCC(c4ccc(OCCN5CCN(C)C(=O)[C@H]5C)cc4)CC3)nn12 [AZD5153] + CN(CC[C@H](CSC1=CC=CC=C1)NC2=C(C=C(C=C2)S(=O)(=O)NC(=O)C3=CC=C(C=C3)N4CCC(CC4)[C@H](C5=CC=CC=C5C6=CC=C(C=C6)Cl)O)S(=O)(=O)C(F)(F)F)CCO [AZD4320] (first compound max 1 µM, 7x7, partner max 1 µM)	0.107	-0.0879	0.0033			-0.0369		0.0066		0.0145				0.958	0.607		0.409			0.558
C[C@@H](c1ccc2nccn2c1)n1nnc2ncc(-c3cnn(C)c3)nc21 [Savolitinib] + Cc1c2c(nn1C)CSCc1cc(n(C)n1)CSc1cc(c3ccccc3c1)OCCCc1c(C(=O)O)n(C)c3c-2c(Cl)ccc13 [AZD5991] (first compound max 1 µM, 7x7, partner max 1 µM)	-0.0466	-0.0404	-0.0113	-0.0081	-0.0404	-0.0751	-0.0221	-0.0638	-0.0393	0.02	-0.0281	-0.0197	-0.0198	0.299	0.219	0.939	0.0607	0.22	0.257	0.93
Cc1c2c(nn1C)CSCc1cc(n(C)n1)CSc1cc(c3ccccc3c1)OCCCc1c(C(=O)O)n(C)c3c-2c(Cl)ccc13 [AZD5991] + C1CN(CCC1(C(=O)N[C@@H](CCO)C2=CC=C(C=C2)Cl)N)C3=NC=NC4=C3C=CN4 [Capivasertib] (first compound max 1 µM, 7x7, partner max 3 µM)	-0.0769	-0.0621		-0.0227	-0.0118	0.111	-0.0133	0.0198	0.0321	0.0384	-0.0113	0.0116	-0.0416	0.267	0.397	0.989		0.422	0.219	1
NC1(C(=O)N[C@@H](CCO)c2ccc(Cl)cc2)CCN(c2ncnc3[nH]ccc23)CC1 [Capivasertib] + CC(=O)c1c(C)c2cnc(Nc3ccc(N4CCNCC4)cn3)nc2n(C2CCCC2)c1=O [Palbociclib] (first compound max 10 µM, 7x7, partner max 10 µM)	-0.0235	-0.0452	-0.0276	-0.0375	-0.0238	-0.0339	0.0291	0.0072	-0.0127	0.0014	0.0004	-0.0358	-0.0153	0.581	0.644	0.578	0.368	0.76	0.582	0.489
Cn1cnc2c(F)c(Nc3ccc(Br)cc3Cl)c(C(=O)NOCCO)cc21 [Selumetinib] + CC(C)n1c(=O)n(C)c2cnc3cc(F)c(-c4ccc(OCCCN5CCCCC5)nc4)cc3c21 [AZD1390] (first compound max 10 µM, 7x7, partner max 0.3 µM)	-0.0553	-0.03	-0.0359	-0.0135	-0.0517	-0.112	-0.0326	-0.0601	-0.0332	-0.0492	0.0185	-0.0167	-0.0191	0.304	0.259	0.158	0.22	0.3	0.951	0.244
CN(CCO)CC[C@H](CSc1ccccc1)Nc1ccc(S(=O)(=O)NC(=O)c2ccc(N3CCC([C@@H](O)c4ccccc4-c4ccc(Cl)cc4)CC3)cc2)cc1S(=O)(=O)C(F)(F)F [AZD4320] + C[C@@H](Nc1cc(F)cc(F)c1)c1cc(C(=O)N(C)C)cc2c(=O)cc(N3CCOCC3)oc12 [AZD8186] (first compound max 1 µM, 7x7, partner max 3 µM)	-0.051	0.0166	0.0747	-0.0277	0.0257	0.0048	0.0133	0.0489	0.0137	0.0634	-0.0094	-0.0032	-0.0206	0.682	0.298	1	0.342	0.638	0.884	0.471
CC(=O)c1c(C)c2cnc(Nc3ccc(N4CCNCC4)cn3)nc2n(C2CCCC2)c1=O [Palbociclib] + Cc1c2c(nn1C)CSCc1cc(n(C)n1)CSc1cc(c3ccccc3c1)OCCCc1c(C(=O)O)n(C)c3c-2c(Cl)ccc13 [AZD5991] (first compound max 10 µM, 7x7, partner max 1 µM)	-0.0324	-0.105	-0.0135	0.0444	-0.0346	-0.111	0.054	-0.0174	-0.0004	-0.0471	-0.0368	-0.0473	-0.0288	0.398	0.585	0.937	0.171	0.417	0.285	0.969
Cn1cnc2c(F)c(Nc3ccc(Br)cc3Cl)c(C(=O)NOCCO)cc21 [Selumetinib] + C=CCn1c(=O)c2cnc(Nc3ccc(N4CCN(C)CC4)cc3)nc2n1-c1cccc(C(C)(C)O)n1 [AZD1775] (first compound max 10 µM, partner max 1 µM)	-0.0192	-0.0026	-0.147	-0.07	-0.0198	-0.0715	-0.0305	-0.0097	-0.0399	-0.0549	0.0789	-0.0163	-0.0272	0.367	0.453	0.874	0.406	0.712	0.944	0.659
CS(=O)(=O)CCNCc1ccc(-c2ccc3ncnc(Nc4ccc(OCc5cccc(F)c5)c(Cl)c4)c3c2)o1 [Lapatinib] + NC1(c2ccc(-c3nc4ccn5c(=O)[nH]nc5c4cc3-c3ccccc3)cc2)CCC1 [MK-2206] (first compound max 10 µM, 7x7, partner max 10 µM)	0.0178			-0.0597	-0.036	-0.0155	0.0221		0.142	-0.0286	0.0038	-0.0334	-0.0273	0.956	0.954	0.954	0.386	0.977	0.843	0.942
Cc1c2c(nn1C)CSCc1cc(n(C)n1)CSc1cc(c3ccccc3c1)OCCCc1c(C(=O)O)n(C)c3c-2c(Cl)ccc13 [AZD5991] + CCN(CCO)CCCOc1ccc2c(Nc3cc(CC(=O)Nc4cccc(F)c4)[nH]n3)ncnc2c1 [AZD2811] (first compound max 1 µM, 7x7, partner max 1 µM)	-0.014	-0.0554	-0.0209	0.027	0.0144	0.0215	0.0679	-0.0057	-0.0116	-0.0393		0.0266	-0.0133	0.3	0.498	0.993	0.197	0.395	0.394	0.998
C[C@@H](c1ccc2nccn2c1)n1nnc2ncc(-c3cnn(C)c3)nc21 [Savolitinib] + CN(CC[C@H](CSC1=CC=CC=C1)NC2=C(C=C(C=C2)S(=O)(=O)NC(=O)C3=CC=C(C=C3)N4CCC(CC4)[C@H](C5=CC=CC=C5C6=CC=C(C=C6)Cl)O)S(=O)(=O)C(F)(F)F)CCO [AZD4320] (first compound max 1 µM, 7x7, partner max 1 µM)	-0.0078	-0.0004	-0.0221			-0.0736		-0.0487		0.0076				0.463	0.219		0.113			0.329
CC(=O)c1c(C)c2cnc(Nc3ccc(N4CCNCC4)cn3)nc2n(C2CCCC2)c1=O [Palbociclib] + CN(CC[C@H](CSC1=CC=CC=C1)NC2=C(C=C(C=C2)S(=O)(=O)NC(=O)C3=CC=C(C=C3)N4CCC(CC4)[C@H](C5=CC=CC=C5C6=CC=C(C=C6)Cl)O)S(=O)(=O)C(F)(F)F)CCO [AZD4320] (first compound max 10 µM, 7x7, partner max 1 µM)	-0.0104	-0.0524	-0.0118			-0.0554		-0.0711		0.016				0.692	0.607		0.205			0.51
CN(C)CCCOc1ccc(-c2ccc3ncc4c(c3c2)n(C2CCOCC2)c(=O)n4C)cn1 [AZD0156] + C[C@@H]1COCCN1C2=NC(=NC(=C2)C3(CC3)[S@](=N)(=O)C)C4=C5C=CNC5=NC=C4 [AZD6738] (first compound max 1 µM, 7x7, partner max 10 µM)	0.0429	0.0179	0.0047	-0.0707	0.0082	-0.0027	0.0348	-0.0076	-0.026		-0.0424	0.0055	-0.0343	0.719	0.589	0.908	0.315	0.704	0.783	
